From paper PMC5926202, “Creation of a nanoformulated cabotegravir prodrug with improved antiretroviral profiles” (Biomaterials, 2017)
≈ marks a conversion by molar mass, not a printed value.

Assays:
[1] = system: HIV-1ADA in human monocyte derived macrophages (MDM); experiment: Antiretroviral activity of CAB and MCAB in HIV-1ADA infected MDM (HIV RT activity); assay type: cell-based; conditions: Human immunodeficiency virus 1, 168 h, HIV-1ADA MOI 0.1, MDM, 7 days after challenge
Description: (E) Antiretroviral activities of CAB and MCAB were evaluated in HIV-1ADA infected human monocyte derived macrophages (MDM). Inhibition rate was presented as percentage of reduced HIV reverse transcriptase (RT) activity as compared to positive control RT activity. Nonlinear regression was performed using log (drug concentration) vs. Inhibition rate with variable slope, and drug concentration for 50% inhibition (IC50) was calculated. […] Data are expressed as mean ± SD for n= 6 samples per group.
Monocyte-derived macrophages (MDM) were utilized. […] Briefly, monocytes were obtained by leukapheresis of HIV-1/2 and hepatitis B seronegative donor blood cells, followed by purification via countercurrent centrifugal elutriation. Elutriated monocytes were cultured as adherent cells in DMEM supplemented with 10% heat-inactivated pooled human serum, 10 µg/mL ciprofloxacin, 50 µg/mL gentamicin, and 1000 U/mL recombinant macrophage colony stimulating factor. Cells were maintained at 37 °C in a 5% CO2 incubator. Seven days later, differentiated macrophages were treated with various concentrations (0.06–1000 nM) of native CAB or MCAB for 30 min, followed by HIV-1ADA challenge at a multiplicity of infection (MOI) of 0.1 infectious viral particles/cell. […]

[2] = long-acting parenteral; cited from earlier work
[3] = Solubility test in water and 1-octanol; assay type: physicochemical; conditions: room temperature; for solubility at 24 h: water, thermodynamic from solid, 24 h mixing
Description: The solubilities of CAB and MCAB in water and 1-octanol were determined by adding excess drug to each solution at room temperature then mixing for 24 h. Samples were centrifuged at 20,000 × g for 10 min to pellet insoluble drug. The supernatants containing solubilized drug were vacuum-dried then re-dispersed in methanol for drug concentration measurement using a Waters ACQUITY ultra performance liquid chromatography (UPLC) H-Class System with TUV detector and Empower 3 software (Milford, MA, USA). […] Drug content was quantitated by comparison of peak area to those of known standards (0.05–50 µg/mL in methanol).

HIV = conditions: cited from earlier work

| SMILES | IC50 [1] | half-life [2] | solubility at 24 h [3] | 4 × PA-IC90 (HIV; 4 times protein-binding-adjusted 90% inhibitory concentration ref 19-22) | PA-IC90 (HIV; protein-binding-adjusted ref 24) | increase in 1-octanol solubility compared to CAB [3] |
| --- | --- | --- | --- | --- | --- | --- |
| C[C@H]1CO[C@@H]2Cn3cc(C(=O)NCc4ccc(F)cc4F)c(=O)c(O)c3C(=O)N12 [CAB, cabotegravir] | 2.5 nM | up to 54 days | 31.9 ± 14.4 µg/mL (≈ 78.7 µM) | 0.66 µg/mL | 0.166 µg/mL |  |
| CCCCCCCCCCCCCC(=O)Oc1c2n(cc(C(=O)NCc3ccc(F)cc3F)c1=O)CC1OCC(C)N1C2=O (centres unmarked) [MCAB] | 3.4 nM |  | 5.6 ± 1.8 µg/mL (≈ 9.1 µM) |  |  | 30 fold |
